Data published in US10723741B1, “DNA polymerase IIIC inhibitors and use thereof” (Acurx Pharmaceuticals, LLC, priority 2018, dated 2020).
In brackets after ≈: the same amount, converted by molar mass. Where two headings read alike, the source gives them in different places.

Columns and labels:
Format in all cases: cell-based
[1] = test system: Enterococcus faecium ATCC 700221 (VRE); experiment: Broth microdilution MIC, E. faecium ATCC 700221 (VRE); details: Enterococcus faecium, broth microdilution, 37° C., 20 hours
In short: (§1)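 Broth microdilution in strain-specific test medium with ~5.0×10^5 cfu/ml inoculum, 1% DMSO and two-fold compound dilutions from 64 to 0.0625 μg/ml. Plates were held 20 hours at 37° C in ambient air. S. pneumoniae colonies were grown beforehand on blood agar in 5% CO2.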

[2] = test system: Enterococcus faecalis ATCC 29212; experiment: Broth microdilution MIC, E. faecalis ATCC 29212; details: ATCC29212, broth microdilution, 37° C., 20 hours, read-out: MIC E. faecalis ATCC 29212
In short: as §1

[3] = test system: Staphylococcus aureus ATCC 29213 (MSSA); experiment: Broth microdilution MIC, S. aureus ATCC 29213 (MSSA); details: broth microdilution, 37° C., 20 hours, read-out: MIC S. aureus ATCC 29213 (MSSA)
In short: as §1

[4] = test system: Bacillus subtilis ATCC 6633; experiment: Broth microdilution MIC, B. subtilis ATCC 6633; details: ATCC6633, broth microdilution, 37° C., 20 hours, read-out: MIC B. subtilis ATCC 6633
In short: as §1

[5] = test system: Escherichia coli ATCC 25922; experiment: Broth microdilution MIC, E. coli ATCC 25922 (MHIIB w & w/o 4 mM EDTA); details: broth microdilution, 37° C., 20 hours; for MIC: Escherichia coli, ATCC25922, without EDTA, read-out: MIC E. coli ATCC 25922; for MIC E. coli ATCC 25922 + 4 mM EDTA: with 4 mM EDTA
In short: as §1

[6] = test system: Staphylococcus aureus NRS384 (MRSA); experiment: Broth microdilution MIC, S. aureus NRS384 (MRSA); details: Staphylococcus aureus, broth microdilution, 37° C., 20 hours
In short: as §1

[7] = test system: Streptococcus pneumoniae ATCC 49619; experiment: Broth microdilution MIC, S. pneumoniae ATCC 49619; details: ATCC49619, broth microdilution, 37° C., 20 hours, read-out: MIC S. pneumoniae ATCC 49619
In short: as §1

[8] = read-out: MIC E. faecium ATCC 700221 (VRE)

Structure (SMILES) | MIC [1, 8] [µg/mL] | MIC [2] [µg/mL] | MIC [3] [µg/mL] | MIC [4] [µg/mL] | MIC [5] [µg/mL] | MIC E. coli ATCC 25922 + 4 mM EDTA [5] [µg/mL] | MIC ([6]; read-out: MIC NRS 384 (MRSA)) [µg/mL] | MIC [7] [µg/mL] | MIC ([1]; MHIIB, read-out: MIC against E. faecium ATCC 700221 (VRE)) [µg/mL] | MIC ([6]; MHIIB, read-out: MIC against S. aureus NRS 384 (MRSA)) [µg/mL]
COCCCCCn1cc2nc(NCc3ccc(Cl)c(Cl)c3)[nH]c(=O)c2n1 [Compound 133, 5-((3,4-Dichlorobenzyl)amino)-2-(5-methoxypentyl)-2H-pyrazolo[4,3-d]pyrimidin-7(6H)-one] | 64 (≈ 156 µM) | > 64 | > 64 | 8 (≈ 19.5 µM) | > 64 | >64 | > 64 | 16 (≈ 39 µM) |  | 
O=c1[nH]c(NCc2ccc(Cl)c(Cl)c2)nc2cnn(CC3CCC3)c12 [Compound 134, 1-(Cyclobutylmethyl)-5-((3,4-dichlorobenzyl)amino)-1H-pyrazolo[4,3-d]pyrimidin-7(6H)-one] | 1 (≈ 2.64 µM) | > 64 | 1 (≈ 2.64 µM) | 0.5 (≈ 1.32 µM) | > 64 | >64 | 1 (≈ 2.64 µM) | 8 (≈ 21.1 µM) | ≤ 1 | ≤ 1
O=c1[nH]c(NCc2ccc(Cl)c(Cl)c2)nc2cn(CC3CCC3)nc12 [Compound 135, 2-(Cyclobutylmethyl)-5-((3,4-dichlorobenzyl)amino)-2H-pyrazolo[4,3-d]pyrimidin-7(6H)-one] | 8 (≈ 21.1 µM) | > 64 | 32 (≈ 84.6 µM) | 4 (≈ 10.6 µM) | > 64 | 8 | 8 (≈ 21.1 µM) | 16 (≈ 42.3 µM) |  | 
COCCOCCn1ncc2nc(NCc3ccc(Cl)c(Cl)c3)[nH]c(=O)c21 [Compound 136, 5-((3,4-Dichlorobenzyl)amino)-1-(2-(2-methoxyethoxy)ethyl)-1H-pyrazolo[4,3-d]pyrimidin-7(6H)-one] | 2 (≈ 4.85 µM) | 4 (≈ 9.7 µM) | 4 (≈ 9.7 µM) | 1 (≈ 2.43 µM) | > 64 | >64 | 4 (≈ 9.7 µM) | 2 (≈ 4.85 µM) |  | 
COCCOCCn1cc2nc(NCc3ccc(Cl)c(Cl)c3)[nH]c(=O)c2n1 [Compound 137, 5-((3,4-Dichlorobenzyl)amino)-2-(2-(2-methoxyethoxy)ethyl)-2H-pyrazolo[4,3-d]pyrimidin-7(6H)-one] | 16 (≈ 38.8 µM) | 32 (≈ 77.6 µM) | 32 (≈ 77.6 µM) | 16 (≈ 38.8 µM) | > 64 | >64 | 32 (≈ 77.6 µM) | 16 (≈ 38.8 µM) |  | 
COCCOCn1ncc2nc(NCc3ccc(Cl)c(Cl)c3)[nH]c(=O)c21 [Compound 138, 5-((3,4-dichlorobenzyl)amino)-1-((2-methoxyethoxy)methyl)-1H-pyrazolo[4,3-d]pyrimidin-7(6H)-one] | 2 (≈ 5.02 µM) | 4 (≈ 10 µM) | 2 (≈ 5.02 µM) | 1 (≈ 2.51 µM) | > 64 | >64 | 2 (≈ 5.02 µM) | 2 (≈ 5.02 µM) |  | 
O=c1[nH]c(NCc2ccc(Cl)c(Cl)c2)nc2cnn(-c3ncccn3)c12 [Compound 139, 5-((3,4-Dichlorobenzyl)amino)-1-(pyrimidin-2-yl)-1H-pyrazolo[4,3-d]pyrimidin-7(6H)-one] | > 64 | > 64 | > 64 | > 64 | > 64 | >64 | > 64 | > 64 |  | 
O=c1[nH]c(NCc2ccc(Cl)c(Cl)c2)nc2cn(-c3ncccn3)nc12 [Compound 140, 5-((3,4-Dichlorobenzyl)amino)-2-(pyrimidin-2-yl)-2H-pyrazolo[4,3-d]pyrimidin-7(6H)-one] | 32 (≈ 82.4 µM) | > 64 | > 64 | 4 (≈ 10.3 µM) | > 64 | >64 | > 64 | 4 (≈ 10.3 µM) |  | 
O=C(O)COCCn1cc2nc(NCc3ccc(Cl)c(Cl)c3)[nH]c(=O)c2n1 [Compound 141, 2-(2-(5-((3,4-Dichlorobenzyl)amino)-7-oxo-6,7-dihydro-2H-pyrazolo[4,3-d]pyrimidin-2-yl)ethoxy)acetic acid] | > 64 | > 64 | > 64 | > 64 | > 64 | >64 | > 64 | > 64 |  | 
O=c1[nH]c(NCc2ccc(Cl)c(Cl)c2)nc2cnn(C3COC3)c12 [Compound 142, 5-((3,4-Dichlorobenzyl)amino)-1-(oxetan-3-yl)-1H-pyrazolo[4,3-d]pyrimidin-7(6H)-one] | 2 (≈ 5.46 µM) | 4 (≈ 10.9 µM) | 4 (≈ 10.9 µM) | 1 (≈ 2.73 µM) | > 64 | >64 | 2 (≈ 5.46 µM) | 4 (≈ 10.9 µM) |  | 
O=c1[nH]c(NCc2ccc(Cl)c(Cl)c2)nc2cn(C3COC3)nc12 [Compound 143, 5-((3,4-Dichlorobenzyl)amino)-2-(oxetan-3-yl)-2H-pyrazolo[4,3-d]pyrimidin-7(6H)-one] | 32 (≈ 87.4 µM) | 32 (≈ 87.4 µM) | 64 (≈ 175 µM) | 16 (≈ 43.7 µM) | > 64 | >64 | 32 (≈ 87.4 µM) | 16 (≈ 43.7 µM) |  | 
O=c1[nH]c(NCc2ccc(Cl)c(Cl)c2)nc2cnn(Cc3ncco3)c12 [Compound 144, 5-((3,4-Dichlorobenzyl)amino)-1-(oxazol-2-ylmethyl)-1H-pyrazolo[4,3-d]pyrimidin-7(6H)-one] | 2 (≈ 5.11 µM) | 16 (≈ 40.9 µM) | 4 (≈ 10.2 µM) | 2 (≈ 5.11 µM) | > 64 | >64 | 4 (≈ 10.2 µM) | 8 (≈ 20.4 µM) |  | 
O=C(O)CCCn1ncc2nc(NCc3ccc(Cl)c(Cl)c3)[nH]c(=O)c21 [Compound 145, 4-(5-((3,4-Dichlorobenzyl)amino)-7-oxo-6,7-dihydro-1H-pyrazolo[4,3-d]pyrimidin-1-yl)butanoic acid] | 16 (≈ 40.4 µM) | 64 (≈ 162 µM) | 64 (≈ 162 µM) | 32 (≈ 80.8 µM) | > 64 | >64 | 64 (≈ 162 µM) | 16 (≈ 40.4 µM) |  | 
CP(C)(=O)CCCCn1ncc2nc(NCc3ccc(Cl)c(Cl)c3)[nH]c(=O)c21 [Compound 146, 5-((3,4-Dichlorobenzyl)amino)-1-(4-(dimethylphosphoryl)butyl)-1H-pyrazolo[4,3-d]pyrimidin-7(6H)-one] | 32 (≈ 72.4 µM) | 64 (≈ 145 µM) | > 64 | 32 (≈ 72.4 µM) | > 64 | >64 | > 64 | 32 (≈ 72.4 µM) |  | 
CN1CCOC(Cn2ncc3nc(NCc4ccc(Cl)c(Cl)c4)[nH]c(=O)c32)C1.Cl (stereo not shown) [Compound 147, 5-((3,4-dichlorobenzyl)amino)-1-((4-methylmorpholin-2-yl)methyl)-1H-pyrazolo[4,3-d]pyrimidin-7(6H)-one hydrochloride] | 2 | 8 | 8 | 2 | > 64 | 64 | 4 | 4 |  | 
CC(C)(C)OC(=O)N1CCOC(Cn2ncc3nc(NCc4ccc(Cl)c(Cl)c4)[nH]c(=O)c32)C1 (stereo not shown) [Compound 148, tert-butyl 2-((5-((3,4-dichlorobenzyl)amino)-7-oxo-6,7-dihydro-1H-pyrazolo[4,3-d]pyrimidin-1-yl)methyl)morpholine-4-carboxylate] | 4 (≈ 7.85 µM) | 16 (≈ 31.4 µM) | 8 (≈ 15.7 µM) | 2 (≈ 3.93 µM) | > 64 | >64 | 4 (≈ 7.85 µM) | 16 (≈ 31.4 µM) |  | 
